Assay results taken from Sander's compilation of Henry's law constants (doi:10.1016/s0378-4347(00)82845-5).

Test: Henry solubility constant Hcp at 310 K (mol/(m3 Pa))
Conditions: reference: Guitart et al. (1989)

CCCCCC [hexane]
Henry solubility constant Hcp at 310 K: 6.7e-06

CCCCCCC [heptane]
Henry solubility constant Hcp at 310 K: 6e-06

CC(C)=O [propanone]
Henry solubility constant Hcp at 310 K: 0.12

FC(F)(F)C(Cl)Br (configuration not stated) [1-bromo-1-chloro-2,2,2-trifluoroethane]
Henry solubility constant Hcp at 310 K: 0.00028

c1ccccc1 [benzene]
Henry solubility constant Hcp at 310 K: 0.002

CC(C)CC(C)(C)C [2,2,4-trimethylpentane]
Henry solubility constant Hcp at 310 K: 4.6e-06

CC(C)OC(C)C [diisopropyl ether]
Henry solubility constant Hcp at 310 K: 0.0028

C1CCCCC1 [cyclohexane]
Henry solubility constant Hcp at 310 K: 3.4e-05

ClC=C(Cl)Cl [trichloroethene]
Henry solubility constant Hcp at 310 K: 0.00055

FC(F)OC(F)(F)C(F)Cl (configuration not stated) [2-chloro-1,1,2-trifluoroethyl difluoromethyl ether]
Henry solubility constant Hcp at 310 K: 0.00027

CCCC [butane]
Henry solubility constant Hcp at 310 K: 8e-06

CC(Cl)(Cl)Cl [1,1,1-trichloroethane]
Henry solubility constant Hcp at 310 K: 0.00032

CCOC(C)=O [ethyl ethanoate]
Henry solubility constant Hcp at 310 K: 0.043

ClCCl [dichloromethane]
Henry solubility constant Hcp at 310 K: 0.0034

CCOCC [diethyl ether]
Henry solubility constant Hcp at 310 K: 0.0063

C1CC1 [cyclopropane]
Henry solubility constant Hcp at 310 K: 7.8e-05

FS(F)(F)(F)(F)F [sulfur hexafluoride]
Henry solubility constant Hcp at 310 K: 1.4e-06
